Results from the supplement of paper PMC10307832.

Assays:
Test in all cases: relative viability (nuclei count vs DMSO), 5 days (fraction); higher = more cells survive
[1] = system: BEN
Outline: (§1)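 Relative viability is defined as nuclei in treated wells over nuclei in vehicle wells. Duplicate plates were run and medians reported. Lung cancer cell lines in 1536-well plates were dosed by pin tool one day after seeding, with one drug or with a fixed anchor-drug dose plus five library-drug doses (not always all listed) in √10 steps, and nuclei were counted after 5 days.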

[2] = system: ChaGo-K-1
Outline: as §1

[3] = system: HCC-15
Outline: as §1

[4] = system: HCC-78
Outline: as §1

[5] = system: LC-2-ad
Outline: as §1

[6] = system: LCLC-97TM1
Outline: as §1

[7] = system: LK-2
Outline: as §1

[8] = system: LU99A
Outline: as §1

[9] = system: LXF-289
Outline: as §1

[10] = system: NCI-H1651
Outline: as §1

[11] = system: NCI-H1666
Outline: as §1

CC1(C)CCC(c2ccc(Cl)cc2)=C(CN2CCN(c3ccc(C(=O)NS(=O)(=O)c4ccc(N[C@H](CCN5CCOCC5)CSc5ccccc5)c(S(=O)(=O)C(F)(F)F)c4)cc3)CC2)C1 [Navitoclax] + CC(=O)c1c(C)c2cnc(Nc3ccc(N4CCNCC4)cn3)nc2n(C2CCCC2)c1=O [Palbociclib] (partner 0.5 µM)
relative viability ([1]; first compound 0.005 µM): 0.475 | relative viability ([1]; first compound 0.01581 µM): 0.525 | relative viability ([1]; first compound 0.05 µM): 0.462 | relative viability ([1]; first compound 0.1581 µM): 0.399 | relative viability ([1]; first compound 0.5 µM): 0.268 | relative viability ([2]; first compound 0.005 µM): 0.971 | relative viability ([2]; first compound 0.01581 µM): 0.926 | relative viability ([2]; first compound 0.05 µM): 0.492 | relative viability ([2]; first compound 0.1581 µM): 0.903 | relative viability ([2]; first compound 0.5 µM): 0.954 | relative viability ([3]; first compound 0.005 µM): 0.738 | relative viability ([3]; first compound 0.01581 µM): 0.77 | relative viability ([3]; first compound 0.05 µM): 0.655 | relative viability ([3]; first compound 0.1581 µM): 0.773 | relative viability ([3]; first compound 0.5 µM): 0.687 | relative viability ([4]; first compound 0.005 µM): 0.509 | relative viability ([4]; first compound 0.01581 µM): 0.428 | relative viability ([4]; first compound 0.05 µM): 0.441 | relative viability ([4]; first compound 0.1581 µM): 0.448 | relative viability ([4]; first compound 0.5 µM): 0.489 | relative viability ([5]; first compound 0.005 µM): 0.505 | relative viability ([5]; first compound 0.01581 µM): 0.452 | relative viability ([5]; first compound 0.05 µM): 0.456 | relative viability ([5]; first compound 0.1581 µM): 0.413 | relative viability ([5]; first compound 0.5 µM): 0.412 | relative viability ([6]; first compound 0.005 µM): 0.239 | relative viability ([6]; first compound 0.01581 µM): 0.215 | relative viability ([6]; first compound 0.05 µM): 0.166 | relative viability ([6]; first compound 0.1581 µM): 0.203 | relative viability ([6]; first compound 0.5 µM): 0.241 | relative viability ([7]; first compound 0.005 µM): 0.588 | relative viability ([7]; first compound 0.01581 µM): 0.925 | relative viability ([7]; first compound 0.05 µM): 0.661 | relative viability ([7]; first compound 0.1581 µM): 0.502 | relative viability ([7]; first compound 0.5 µM): 0.758 | relative viability ([8]; first compound 0.005 µM): 0.392 | relative viability ([8]; first compound 0.01581 µM): 0.433 | relative viability ([8]; first compound 0.1581 µM): 0.437 | relative viability ([8]; first compound 0.5 µM): 0.48 | relative viability ([9]; first compound 0.005 µM): 0.589 | relative viability ([9]; first compound 0.01581 µM): 0.658 | relative viability ([9]; first compound 0.05 µM): 0.547 | relative viability ([9]; first compound 0.1581 µM): 0.606 | relative viability ([9]; first compound 0.5 µM): 0.627 | relative viability ([10]; first compound 0.005 µM): 0.513 | relative viability ([10]; first compound 0.01581 µM): 0.552 | relative viability ([10]; first compound 0.05 µM): 0.494 | relative viability ([10]; first compound 0.1581 µM): 0.513 | relative viability ([10]; first compound 0.5 µM): 0.54 | relative viability ([11]; first compound 0.005 µM): 0.623 | relative viability ([11]; first compound 0.01581 µM): 0.69 | relative viability ([11]; first compound 0.05 µM): 0.666 | relative viability ([11]; first compound 0.1581 µM): 0.665
